The IC50 is the concentration at which inhibition is half-maximal.

Data on eight molecules can be found in publication PMC6503653 (European journal of medicinal chemistry, 2018).

The subject of data set [1] is E. coli and the human cytosolic A-site. Kind of data set: Selectivity factor, E. coli versus human cytosolic A-site. It is filed as binding. The following applies: 5.75 × IC50(human)/IC50(E. coli); above 5.75 = selectivity to bacterial A-site.
The test system of data set [2] is 4 MRSA NEO-resistant strains. In words: MIC against the MRSA NEO-resistant strains. It is filed as cell-based, Staphylococcus aureus.
For another data set, the target named is APH(2″)-Ia (Staphylococcus aureus, UniProt P0A0C1). In words: AME modification of conjugates, APH. Format: biochemical.
Chain of APH(2″)-Ia (P0A0C1 whole entry): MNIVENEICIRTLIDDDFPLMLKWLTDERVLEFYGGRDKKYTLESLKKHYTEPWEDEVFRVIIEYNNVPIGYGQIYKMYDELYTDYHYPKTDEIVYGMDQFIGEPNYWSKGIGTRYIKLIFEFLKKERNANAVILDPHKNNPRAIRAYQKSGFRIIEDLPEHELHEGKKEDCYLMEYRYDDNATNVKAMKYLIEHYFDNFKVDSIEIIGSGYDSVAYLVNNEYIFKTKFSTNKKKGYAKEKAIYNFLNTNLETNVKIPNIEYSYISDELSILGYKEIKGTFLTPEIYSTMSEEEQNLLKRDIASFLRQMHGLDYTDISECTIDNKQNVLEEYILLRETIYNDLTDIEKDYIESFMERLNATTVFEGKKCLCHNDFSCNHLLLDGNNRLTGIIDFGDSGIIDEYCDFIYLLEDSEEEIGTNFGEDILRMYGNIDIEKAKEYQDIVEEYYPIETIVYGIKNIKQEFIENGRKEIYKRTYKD
Another data set concerns E. coli H4H. Kind of data set: MIC and growth inhibition, microdilution. It is filed as cell-based, Escherichia coli. The note with it: concentration not given. (In broth dilution the organism is exposed to a series of concentrations in liquid medium.)
The next data set has as its system rRNA A-site. The note with it: read-out: IC50, F-NEO screening test; range over rRNA A-sites; cited from earlier work.
Another data set deals with L1-stage C. elegans. Kind of data set: Toxicity in C. elegans, MTT assay. Format: in vivo, Caenorhabditis elegans. The following applies: lowest concentrations used (3.13 – 1.56 μM), 24 h.

In data set [1], `NC[C@@H]1O[C@H](O[C@H]2[C@@H](O)[C@H](O[C@@H]3[C@@H](O)[C@H](N)C[C@H](N)[C@H]3O[C@H]3O[C@H](CN)[C@@H](O)[C@H](O)[C@H]3N)O[C@@H]2CNC(=O)Cc2ccc3ccc4cccc5ccc2c3c45)[C@H](N)[C@@H](O)[C@@H]1O` [Compound 10] gave a Selectivity factor of 7.12.

Molecule `NC[C@@H]1O[C@H](O[C@H]2[C@@H](O)[C@H](O[C@@H]3[C@@H](O)[C@H](N)C[C@H](N)[C@H]3O[C@H]3O[C@H](CN)[C@@H](O)[C@H](O)[C@H]3N)O[C@@H]2CNC(=O)CCc2ccc3ccc4cccc5ccc2c3c45)[C@H](N)[C@@H](O)[C@@H]1O` [Compound 11] gave a Selectivity factor in data set [1] of 8.29.

For the molecule `NC[C@@H]1O[C@H](O[C@H]2[C@@H](O)[C@H](O[C@@H]3[C@@H](O)[C@H](N)C[C@H](N)[C@H]3O[C@H]3O[C@H](CN)[C@@H](O)[C@H](O)[C@H]3N)O[C@@H]2CNC(=O)CCCc2ccc3ccc4cccc5ccc2c3c45)[C@H](N)[C@@H](O)[C@@H]1O` [Compound 12], in data set [2], the “MIC values times lower than that of NEO” value is recorded as 4-16 times. Moreover, the Selectivity factor in data set [1] is recorded as 6.76.

On to `NC[C@@H]1O[C@H](O[C@H]2[C@@H](O)[C@H](O[C@@H]3[C@@H](O)[C@H](N)C[C@H](N)[C@H]3O[C@H]3O[C@H](CN)[C@@H](O)[C@H](O)[C@H]3N)O[C@@H]2CSCCNC(=O)Cc2ccc3ccc4cccc5ccc2c3c45)[C@H](N)[C@@H](O)[C@@H]1O` [Compound 13], for which, in data set [2], the “MIC values times lower than that of NEO” value is listed as 4-16 times. In addition, the Selectivity factor in data set [1] turned out to be 5.87.

`NC[C@@H]1O[C@H](O[C@H]2[C@@H](O)[C@H](O[C@@H]3[C@@H](O)[C@H](N)C[C@H](N)[C@H]3O[C@H]3O[C@H](CN)[C@@H](O)[C@H](O)[C@H]3N)O[C@@H]2CSCCNC(=O)CCc2ccc3ccc4cccc5ccc2c3c45)[C@H](N)[C@@H](O)[C@@H]1O` [Compound 14] displayed a Selectivity factor in data set [1] of 6.14.

For `NC[C@@H]1O[C@H](O[C@H]2[C@@H](O)[C@H](O[C@@H]3[C@@H](O)[C@H](N)C[C@H](N)[C@H]3O[C@H]3O[C@H](CN)[C@@H](O)[C@H](O)[C@H]3N)O[C@@H]2CSCCNC(=O)CCCc2ccc3ccc4cccc5ccc2c3c45)[C@H](N)[C@@H](O)[C@@H]1O` [Compound 15], the “MIC values times lower than that of NEO” value in data set [2] is listed as 4-16 times. Also, at APH(2″)-Ia, the “modification by APH(2″)-Ia relative to NEO” value is on record as “increased activity”. Also, in the data set on E. coli H4H, the “reduction in growth / growth inhibition” value is “* A 30% reduction in growth was observed for compounds 15 and 16 with E. coli H4H”. The molecule further yielded a Selectivity factor in data set [1] of 6.80.

`NC[C@@H]1O[C@H](O[C@H]2[C@@H](O)[C@H](O[C@@H]3[C@@H](O)[C@H](N)C[C@H](N)[C@H]3O[C@H]3O[C@H](CN)[C@@H](O)[C@H](O)[C@H]3N)O[C@@H]2CSCCNC(=S)NCCCCCCNC(=O)CCCc2ccc3ccc4cccc5ccc2c3c45)[C@H](N)[C@@H](O)[C@@H]1O` [Compound 16]: the “MIC values times lower than that of NEO” value in data set [2] is on record as 4-16 times. Also, in the data set on E. coli H4H, the “reduction in growth / growth inhibition” value is “* A 30% reduction in growth was observed for compounds 15 and 16 with E. coli H4H”. The molecule also displayed a Selectivity factor in data set [1] of 5.70.

Turning to `NC[C@@H]1O[C@H](O[C@H]2[C@@H](O)[C@H](O[C@@H]3[C@@H](O)[C@H](N)C[C@H](N)[C@H]3O[C@H]3O[C@H](CN)[C@@H](O)[C@H](O)[C@H]3N)O[C@@H]2CO)[C@H](N)[C@@H](O)[C@@H]1O` [NEO, Neomycin B], in the data set with rRNA A-site, the IC50 was 68 to 114 nM. Further, the “toxicity / larvae viability compared with the untreated control” value with L1-stage C. elegans is listed as “no significant difference”.
